The values that follow come from US20190275087A1, “EXPANSION AND DIFFERENTIATION OF STEM CELLS” (Allergan Pharmaceuticals International Limited, priority 2018, published 2019).

For assay [1], the system named is Human bone marrow-derived MSCs. Nature of the assay: MSC proliferation (crystal violet cell abundance). Format: cell-based. Here is the method:
Human bone marrow-derived MSCs obtained from American Type Culture Collection (ATCC) were cultured in normal media, which consists of Alpha-Minimum Essential Medium (α-MEM) (Lonza) with 10% (v/v) FBS (Life Technologies) and 2.4 mM L-glutamine (Lonza), at 37° C. in a humidified normoxic incubator up to a maximum of 10 population doublings. Where indicated, the normal media was supplemented with 15 ng/mL IGF-1 (Life Technologies) and/or […] bFGF (Life Technologies), equivalent to the growth factor concentrations in the ATCC-recommended media. Cells were passaged once they reach 70-80% confluence.
Where indicated, tissue culture plastic wells were coated with 20 μg/mL recombinant human tropoelastin (Elastagen) or 2 μg/mL fibronectin (Sigma-Aldrich®) in PBS (10 mM phosphate, 150 mM NaCl, pH 7.4) at 4° C. overnight. The protein solution was removed, and wells were washed three times with PBS to remove unbound protein prior to cell seeding.
[…] To prevent protein adhesion on the tissue culture substrate, wells were pre-incubated with normal media for 5 hours to enable surface blocking by serum proteins prior to cell seeding in supplemented media.
(§1) Sub-confluent flasks of MSCs were treated with 0.05% (v/v) trypsin-EDTA (Sigma-Aldrich®) at 37° C. for 5 min to lift off adherent cells from the culture vessel. Trypsin was neutralized with two volumes of serum-containing growth media. Cells were centrifuged at 270 g for 5 min and resuspended in the required media. Cells were seeded at a density of 5000 cells/cm^2 on bare or protein-coated tissue culture plastic wells, in normal or supplemented media. Media was changed every 2 days. After specific time points, cells were fixed with 3% (v/v) formaldehyde at room temperature for 20 min, washed with PBS, then stained with 0.1% (w/v) crystal violet in 0.2 M MES buffer for 1 hour. Excess stain was washed off four times with reverse osmosis water. The retained stain was solubilized with 10% (v/v) acetic acid and sample absorbance values indicative of cell abundance were read at 570 nm. Sample absorbance values were subtracted by baseline values (corresponding to cell numbers in serum-free media, or cell numbers on day 1 post-seeding) and expressed as a fraction of the highest absorbance among all samples on day 7 post-seeding.

The test system of assay [2] is MSCs. Briefly: Flow cytometry of MSC surface marker expression. Format: cell-based, Human. The following applies: bare TCP, media with only this growth factor, 7 days post-seeding. As to the method:
MSCs cultured for 5 or 7 days in various media formulations and on bare or protein-coated tissue culture wells were trypsinised and pelleted. The cell pellets were washed with 0.22 μm filtered FACS buffer (5% v/v FBS in PBS) and re-centrifuged at 270 g for 5 min. The cells were resuspended in FACS buffer to a concentration of 100,000 cells in 100 μL total volume, and probed for MSC marker expression using the Human Mesenchymal Stem Cell Verification Flow Kit (R&D Systems®). Isotype and unstained control samples were prepared using MSCs cultured in standard growth media on tissue culture plastic. Cells were analyzed using a BD™ Biosciences LSR II Flow Cytometer System. Singlet cells were determined by their forward scatter-to-side scatter and scatter height-to-width ratios, while viable cells were identified by exclusion of 1:20 propidium iodide. Only singlet, viable cells were analyzed for marker expression.
For orientation: In flow cytometry, cells or beads pass a laser one at a time.

The subject of assay [3] is MSCs. Nature of the assay: MSC spreading with integrin-blocking antibodies. The format is cell-based, Human. The following applies: no antibody. As to the method: Cells were fixed and visualized by phase contrast microscopy with a Zeiss Axio Vert.A1 microscope. Images were taken on an AxioCam ICml monochrome camera. […] Cell spreading was quantified by counting the percentage of spread cells in each field of view. Three fields of view were obtained for each sample replicate.
To block specific integrin activity, up to 20 μg/mL of anti-αv or anti-αvβ3 integrin antibodies (Abcam®), or up to 1:250 dilution of anti-αvβ5 integrin antibody (Abcam®) was added to the media during MSC spreading or proliferation assays. Optimal inhibitory concentrations were selected for the anti-αv (5 μg/mL), anti-αvβ3 (5 μg/mL), and anti-αvβ5 (1:500 dilution) integrin antibodies. An anti-β8 integrin (5 μg/mL) (Abcam®) or a non-specific mouse IgG (5 μg/mL) (Sigma-Aldrich®) were also included as negative antibody controls. To block FGFR activity, up to 20 μM of the SU-5402 FGFR inhibitor (Sigma-Aldrich®) was added to the media during MSC proliferation. The integrin and FGFR inhibitors were replenished during every media change.

A further assay deals with integrins on MSCs. Nature of the assay: cell-based or functional assay.
For assay [4], the system named is MSCs. Briefly: MSC proliferation with integrin, FGFR, FAK and PKB/AKT inhibitors. To be noted: for reduction of tropoelastin-mediated proliferation: downstream signaling inhibitor, 7 days. Format: cell-based, Human. As to the method: as §1
To block specific integrin activity, up to 20 μg/mL of anti-αv or anti-αvβ3 integrin antibodies (Abcam®), or up to 1:250 dilution of anti-αvβ5 integrin antibody (Abcam®) was added to the media during MSC spreading or proliferation assays. […] An anti-β8 integrin (5 μg/mL) (Abcam®) or a non-specific mouse IgG (5 μg/mL) (Sigma-Aldrich®) were also included as negative antibody controls. […] The integrin and FGFR inhibitors were replenished during every media change.

The subject of assay [5] is MSCs. Briefly: MSC attachment to substrate-bound tropoelastin (EDTA inhibition, cation add-back). Format: cell-based, Human. To be noted: 5 mM. As to the method:
MSCs were seeded at a density of 1.5×10^5 cells/cm^2 on tropoelastin-coated wells in serum-free α-MEM containing 0-9 mM ethylenediaminetetraacetic acid (EDTA) (Sigma-Aldrich®). The cells were incubated for 1 hour at 37° C., then washed with PBS to remove unbound cells. Bound cells were fixed, stained and measured for absorbance at 570 nm as described for the proliferation assays. The percentage of cell attachment was determined relative to a set of standards with known cell numbers.
MSCs were washed with cation-free PBS, centrifuged at 270 g for 5 min, and resuspended in cation-free PBS. The cells were seeded at a density of 1.5×10^5 cells/cm^2 on tropoelastin-coated wells in the presence of 0-0.5 mM cation (Mg^2+, Ca^2+ or Mn^2+) and incubated for 45 min at 37° C. Bound cells were fixed and stained, and cell attachment was quantified as previously described.

Chain of recombinant human tropoelastin (Elastagen) (P15502 other isoform, or with tags, fused parts or gaps limits assumed): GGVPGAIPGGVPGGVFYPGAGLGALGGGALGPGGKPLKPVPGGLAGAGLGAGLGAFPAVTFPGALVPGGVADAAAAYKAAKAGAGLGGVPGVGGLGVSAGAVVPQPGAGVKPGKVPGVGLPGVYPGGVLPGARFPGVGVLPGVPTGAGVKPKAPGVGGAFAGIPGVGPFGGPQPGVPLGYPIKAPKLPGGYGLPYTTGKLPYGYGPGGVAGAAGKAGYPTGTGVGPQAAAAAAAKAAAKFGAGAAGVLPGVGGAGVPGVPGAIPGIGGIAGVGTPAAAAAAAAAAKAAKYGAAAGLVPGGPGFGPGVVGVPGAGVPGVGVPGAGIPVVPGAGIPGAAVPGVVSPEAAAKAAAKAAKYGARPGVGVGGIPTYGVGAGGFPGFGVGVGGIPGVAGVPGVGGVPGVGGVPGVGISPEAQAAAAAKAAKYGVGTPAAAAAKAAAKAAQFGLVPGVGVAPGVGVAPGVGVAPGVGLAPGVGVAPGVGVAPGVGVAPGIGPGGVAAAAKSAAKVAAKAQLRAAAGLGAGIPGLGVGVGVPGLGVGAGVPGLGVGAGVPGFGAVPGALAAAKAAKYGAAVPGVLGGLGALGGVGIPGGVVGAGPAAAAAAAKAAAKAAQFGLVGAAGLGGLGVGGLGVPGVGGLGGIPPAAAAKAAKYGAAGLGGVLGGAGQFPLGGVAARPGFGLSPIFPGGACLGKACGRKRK

As for “IGF-1: insulin-like growth factor-1 (Life Technologies), media supplement [reference compound]”, the “MSC numbers compared to normal media” value in assay [1] (media supplementation with IGF-1 alone) is on record as “did not increase MSC numbers”. Moreover, in the assay with MSCs [2], the “cells expressing CD73” value is 89.1±0.1% and the “cells positive for CD105” value amounted to 83.9±0.7%.
As to fibronectin [reference compound], the “decrease in MSC proliferation on coated surface following serum reduction” value in assay [1] (20% reduction in serum, after 7 days) stood at 15±0.1%. In addition, the “inhibition of MSC proliferation on coated TCP compared to normal media” value in assay [1] (40% decrease in serum, after 7 days) is 25±1%. In addition, the “coating concentration that promoted MSC expansion” value in assay [1] (coated on the substratum) is at least 2 µg/mL. The “serum reduction at which MSC numbers significantly decreased” value in assay [1] (coated surface, until 3 days post-seeding) is reported as “completely absent”. The “MSC propagation of fibronectin coating relative to tropoelastin coating” value in assay [1] (full serum media) is given as “equally promoted”. Besides, in assay [1] (in solution in media, up to 7 days), the “stimulation of MSC proliferation above normal media” value is reported as “did not trigger any proliferative response”. In addition, the “cell spreading on fibronectin” value in the assay on MSCs [3] is on record as 92.5±2.6%.
Take “bFGF: basic fibroblast growth factor (Life Technologies), media supplement [reference compound]”: in the assay on MSCs [2], the “cells positive for CD105” value was 92.9±5.9%.
In the assay with integrins on MSCs, “recombinant human tropoelastin (Elastagen) (from UniProt P15502 27-724) (ligand)” showed an MSC adhesion to tropoelastin after addition of up to 0.5 mM Ca2+ of 13.7%, an MSC adhesion to tropoelastin after addition of up to 0.5 mM Mg2+ of 51.8%, an MSC adhesion to tropoelastin after addition of up to 0.5 mM Mn2+ of 76.1% and an MSC adhesion to tropoelastin in a cation-free environment of 20%. Further, the reduction of MSC attachment to substrate-bound tropoelastin in the presence of 5 mM EDTA in the assay with integrins on MSCs amounted to 48.9%.
Turning to `Cc1c[nH]c(/C=C2\C(=O)Nc3ccccc32)c1CCC(=O)O` [SU-5402], the “reduction in overall cell numbers compared to no inhibitor control” value in the assay on MSCs [4] (bFGF-supplemented media, over 7 days) was at most 78.9±0.7%.
As for `O=C(O)CN(CCN(CC(=O)O)CC(=O)O)CC(=O)O` [EDTA, ethylenediaminetetraacetic acid, reference compound], the “reduction of MSC binding to tropoelastin” value in the assay with MSCs [5] was 48.9±0.5%.
`Nc1cc(N)c(N)cc1N` [FAK inhibitor 14]: the “reduction of tropoelastin-mediated proliferation” value in the assay on MSCs [4] amounted to 50.7±2.0%.
Regarding `CCCCCCCCCCCCCCCCCCOP(=O)([O-])OC1CC[N+](C)(C)CC1` [perifosine], in the assay on MSCs [4], the “reduction of tropoelastin-mediated proliferation” value was 21.3±0.5%.
